ChEMBL document CHEMBL5696442, “Discovery of type II inhibitors of TGFβ-activated kinase 1 (TAK1) and mitogen-activated protein kinase kinase kinase kinase 2 (MAP4K2)” (J Med Chem, 2015)
Activity calls are given as the source filed them. The rule behind the calls is not given here.

Key:
[1] = target: Ribosomal protein S6 kinase alpha-5 (Homo sapiens) (UniProt O75582); test: Inhibition of MSK1 domain1 ATP labeling site in human Huh-7 cell lysate at 1 uM by KiNativ Profiling analysis relative to control; assay type: subcellular
[2] = target: T1, Serine/threonine-protein kinase Chk1 (Homo sapiens) (UniProt O14757); test: Inhibition of CHK1 Lys2 labeling site in human Huh-7 cells at 1 uM by KiNativ Profiling analysis relative to control; assay type: cell-based
T1 sequence (whole entry): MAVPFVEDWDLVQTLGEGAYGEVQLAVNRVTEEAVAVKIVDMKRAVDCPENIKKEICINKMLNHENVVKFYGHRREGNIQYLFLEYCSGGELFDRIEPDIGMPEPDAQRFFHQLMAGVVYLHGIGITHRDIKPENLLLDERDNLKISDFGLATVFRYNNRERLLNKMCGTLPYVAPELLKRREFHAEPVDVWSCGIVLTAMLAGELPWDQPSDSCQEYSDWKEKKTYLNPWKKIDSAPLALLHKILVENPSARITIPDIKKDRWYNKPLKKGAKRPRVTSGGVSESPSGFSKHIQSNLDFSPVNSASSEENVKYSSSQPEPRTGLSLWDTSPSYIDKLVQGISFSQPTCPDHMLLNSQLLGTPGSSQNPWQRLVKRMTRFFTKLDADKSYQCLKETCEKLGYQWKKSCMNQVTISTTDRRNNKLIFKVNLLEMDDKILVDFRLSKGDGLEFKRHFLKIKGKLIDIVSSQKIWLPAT

[3] = target: T2, Mitogen-activated protein kinase kinase kinase 7 (Homo sapiens) (UniProt O43318); test: Inhibition of TAK1 Lys2 labeling site harbouring DLKPPNLLLVAGGTVLK in human Huh-7 cells at 1 uM by KiNativ Profiling analysis relative to control; assay type: cell-based
T2 sequence (whole entry): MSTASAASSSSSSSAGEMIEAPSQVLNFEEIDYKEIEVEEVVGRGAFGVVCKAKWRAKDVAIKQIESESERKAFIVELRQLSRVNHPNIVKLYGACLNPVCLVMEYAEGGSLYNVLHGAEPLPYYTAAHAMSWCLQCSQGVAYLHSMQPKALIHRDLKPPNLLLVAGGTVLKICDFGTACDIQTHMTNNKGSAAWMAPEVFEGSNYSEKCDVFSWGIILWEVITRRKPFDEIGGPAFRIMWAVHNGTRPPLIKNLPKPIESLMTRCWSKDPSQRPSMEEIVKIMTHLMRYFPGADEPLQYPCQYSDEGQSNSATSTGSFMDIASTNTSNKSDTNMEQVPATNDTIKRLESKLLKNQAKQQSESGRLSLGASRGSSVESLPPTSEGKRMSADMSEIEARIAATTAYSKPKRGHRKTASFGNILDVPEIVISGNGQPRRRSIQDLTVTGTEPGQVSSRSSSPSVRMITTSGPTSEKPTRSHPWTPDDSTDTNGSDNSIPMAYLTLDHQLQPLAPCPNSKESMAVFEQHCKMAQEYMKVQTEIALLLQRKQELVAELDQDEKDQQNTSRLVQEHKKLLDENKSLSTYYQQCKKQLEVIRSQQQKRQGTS

[4] = target: Wee1-like protein kinase (Homo sapiens) (UniProt P30291); test: Inhibition of Wee1 K2 labeling site in human Huh-7 cells at 1 uM by KiNativ Profiling analysis relative to control; assay type: cell-based
[5] = target: T3, Dual specificity mitogen-activated protein kinase kinase 6 (Homo sapiens) (UniProt P52564); test: Inhibition of MAP2K6 Lys1 labeling site in human A-375 cells at 0.05 uM by KiNativ Profiling analysis relative to control; assay type: cell-based
T3 sequence (whole entry): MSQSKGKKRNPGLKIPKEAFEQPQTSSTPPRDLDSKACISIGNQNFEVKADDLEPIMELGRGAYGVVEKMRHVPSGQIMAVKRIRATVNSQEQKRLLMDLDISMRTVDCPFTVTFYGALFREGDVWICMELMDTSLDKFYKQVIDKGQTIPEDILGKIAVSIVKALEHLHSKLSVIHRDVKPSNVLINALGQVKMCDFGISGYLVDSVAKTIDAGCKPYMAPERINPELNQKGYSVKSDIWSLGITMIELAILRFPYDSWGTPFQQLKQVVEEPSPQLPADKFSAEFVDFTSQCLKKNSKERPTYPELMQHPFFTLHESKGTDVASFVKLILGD

[6] = target: Phosphatidylinositol 4-phosphate 5-kinase type-1 alpha (Homo sapiens) (UniProt Q99755); test: Inhibition of PIP5K1A (unknown origin) at 10 uM by Ambit Kinomescan binding assay
[7] = tested on: Epidermal growth factor receptor (Homo sapiens), P00533 [UNDEFINED MUTATION]; test: Inhibition of EGFR E746-A750del mutant (unknown origin) at 10 uM by Ambit Kinomescan binding assay relative to control
[8] = target: T4, Mitogen-activated protein kinase kinase kinase 2 (Homo sapiens) (UniProt Q9Y2U5); test: Inhibition of MAP3K2 K1 labeling site in human Huh-7 cells at 10 uM by KiNativ Profiling analysis relative to control; assay type: cell-based
T4 sequence (whole entry): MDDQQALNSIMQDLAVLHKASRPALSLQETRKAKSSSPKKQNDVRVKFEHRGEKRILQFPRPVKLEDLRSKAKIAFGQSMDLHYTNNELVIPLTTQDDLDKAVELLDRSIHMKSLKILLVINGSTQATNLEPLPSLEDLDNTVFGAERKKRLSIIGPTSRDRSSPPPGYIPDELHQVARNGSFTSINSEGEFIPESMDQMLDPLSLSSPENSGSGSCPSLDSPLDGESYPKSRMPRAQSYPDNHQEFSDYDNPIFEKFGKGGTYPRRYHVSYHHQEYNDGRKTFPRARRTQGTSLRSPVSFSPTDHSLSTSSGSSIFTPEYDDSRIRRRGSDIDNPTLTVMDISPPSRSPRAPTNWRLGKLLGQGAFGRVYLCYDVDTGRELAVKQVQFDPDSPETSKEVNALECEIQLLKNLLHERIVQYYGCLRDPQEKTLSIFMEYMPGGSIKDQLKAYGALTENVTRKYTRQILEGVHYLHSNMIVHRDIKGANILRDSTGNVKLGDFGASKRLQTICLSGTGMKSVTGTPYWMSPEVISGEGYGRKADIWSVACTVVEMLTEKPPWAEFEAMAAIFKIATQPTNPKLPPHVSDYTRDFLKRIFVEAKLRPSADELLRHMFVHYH

[9] = target: T5, EKC/KEOPS complex subunit TP53RK (Homo sapiens) (UniProt Q96S44); test: Inhibition of PRPK ATP Loop labeling site in human A-375 cells at 5 uM by KiNativ Profiling analysis relative to control; assay type: cell-based
T5 sequence (whole entry): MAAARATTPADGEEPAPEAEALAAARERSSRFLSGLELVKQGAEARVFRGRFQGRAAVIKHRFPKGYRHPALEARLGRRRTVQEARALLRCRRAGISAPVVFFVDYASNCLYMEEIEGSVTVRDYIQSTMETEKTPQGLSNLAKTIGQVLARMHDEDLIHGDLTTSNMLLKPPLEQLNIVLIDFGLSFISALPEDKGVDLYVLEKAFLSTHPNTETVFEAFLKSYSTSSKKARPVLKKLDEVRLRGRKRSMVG

Epidermal growth factor receptor (Homo sapiens), P00533 [UNDEFINED MUTATION], sequence (P00533 whole entry, looked up, stated change not applied): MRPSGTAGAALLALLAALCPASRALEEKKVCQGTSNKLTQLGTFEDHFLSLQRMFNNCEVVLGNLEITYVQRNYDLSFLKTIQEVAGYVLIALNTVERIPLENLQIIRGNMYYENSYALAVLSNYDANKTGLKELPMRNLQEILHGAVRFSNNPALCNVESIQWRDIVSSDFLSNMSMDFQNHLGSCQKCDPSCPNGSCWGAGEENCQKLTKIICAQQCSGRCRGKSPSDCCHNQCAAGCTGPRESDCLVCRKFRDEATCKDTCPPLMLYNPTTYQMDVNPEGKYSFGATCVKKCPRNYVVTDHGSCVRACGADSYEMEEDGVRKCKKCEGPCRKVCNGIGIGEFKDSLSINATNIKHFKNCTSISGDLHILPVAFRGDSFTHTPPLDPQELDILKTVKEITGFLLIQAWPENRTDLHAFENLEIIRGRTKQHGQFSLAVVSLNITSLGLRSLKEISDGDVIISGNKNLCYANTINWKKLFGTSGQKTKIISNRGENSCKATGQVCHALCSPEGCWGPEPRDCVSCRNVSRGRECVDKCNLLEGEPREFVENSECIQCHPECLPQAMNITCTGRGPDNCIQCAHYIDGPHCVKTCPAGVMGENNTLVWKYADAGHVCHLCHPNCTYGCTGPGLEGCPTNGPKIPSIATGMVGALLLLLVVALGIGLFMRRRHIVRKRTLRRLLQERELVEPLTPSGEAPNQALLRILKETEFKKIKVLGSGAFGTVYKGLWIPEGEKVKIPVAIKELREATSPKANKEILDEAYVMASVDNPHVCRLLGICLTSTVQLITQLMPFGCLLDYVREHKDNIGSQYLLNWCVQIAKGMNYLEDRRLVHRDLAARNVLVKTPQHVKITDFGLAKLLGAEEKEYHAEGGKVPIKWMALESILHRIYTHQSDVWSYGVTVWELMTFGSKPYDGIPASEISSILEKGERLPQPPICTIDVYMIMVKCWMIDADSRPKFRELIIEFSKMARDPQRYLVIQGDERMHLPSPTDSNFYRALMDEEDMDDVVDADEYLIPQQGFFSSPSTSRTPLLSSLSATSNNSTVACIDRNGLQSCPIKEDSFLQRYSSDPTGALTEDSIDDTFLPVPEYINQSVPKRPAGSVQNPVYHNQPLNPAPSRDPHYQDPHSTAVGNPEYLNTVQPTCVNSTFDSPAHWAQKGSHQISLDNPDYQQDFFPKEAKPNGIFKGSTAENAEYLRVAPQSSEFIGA
Ribosomal protein S6 kinase alpha-5 (Homo sapiens), sequence (O75582 whole entry, looked up, the tested form may be a part): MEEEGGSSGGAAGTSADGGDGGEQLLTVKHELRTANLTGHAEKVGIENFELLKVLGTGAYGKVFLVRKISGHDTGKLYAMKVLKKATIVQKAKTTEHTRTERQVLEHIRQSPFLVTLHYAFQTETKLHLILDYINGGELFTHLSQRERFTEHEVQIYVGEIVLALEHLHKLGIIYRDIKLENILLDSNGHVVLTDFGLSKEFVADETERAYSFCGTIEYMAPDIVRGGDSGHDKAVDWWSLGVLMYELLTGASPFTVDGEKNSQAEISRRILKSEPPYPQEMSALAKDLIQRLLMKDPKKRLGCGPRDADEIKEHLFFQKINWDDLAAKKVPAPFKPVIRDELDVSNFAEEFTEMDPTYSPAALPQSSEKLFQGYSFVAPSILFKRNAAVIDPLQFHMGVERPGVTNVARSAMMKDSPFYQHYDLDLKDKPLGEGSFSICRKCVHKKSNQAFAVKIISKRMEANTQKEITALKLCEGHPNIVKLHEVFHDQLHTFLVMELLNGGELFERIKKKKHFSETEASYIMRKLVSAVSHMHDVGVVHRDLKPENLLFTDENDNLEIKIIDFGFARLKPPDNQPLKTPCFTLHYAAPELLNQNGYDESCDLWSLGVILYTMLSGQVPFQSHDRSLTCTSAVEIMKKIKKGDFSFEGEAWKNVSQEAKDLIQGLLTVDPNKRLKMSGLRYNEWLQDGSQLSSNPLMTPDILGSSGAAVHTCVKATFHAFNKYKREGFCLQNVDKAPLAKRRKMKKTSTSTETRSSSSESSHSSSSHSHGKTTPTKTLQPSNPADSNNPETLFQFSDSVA
Wee1-like protein kinase (Homo sapiens), sequence (P30291 whole entry, looked up): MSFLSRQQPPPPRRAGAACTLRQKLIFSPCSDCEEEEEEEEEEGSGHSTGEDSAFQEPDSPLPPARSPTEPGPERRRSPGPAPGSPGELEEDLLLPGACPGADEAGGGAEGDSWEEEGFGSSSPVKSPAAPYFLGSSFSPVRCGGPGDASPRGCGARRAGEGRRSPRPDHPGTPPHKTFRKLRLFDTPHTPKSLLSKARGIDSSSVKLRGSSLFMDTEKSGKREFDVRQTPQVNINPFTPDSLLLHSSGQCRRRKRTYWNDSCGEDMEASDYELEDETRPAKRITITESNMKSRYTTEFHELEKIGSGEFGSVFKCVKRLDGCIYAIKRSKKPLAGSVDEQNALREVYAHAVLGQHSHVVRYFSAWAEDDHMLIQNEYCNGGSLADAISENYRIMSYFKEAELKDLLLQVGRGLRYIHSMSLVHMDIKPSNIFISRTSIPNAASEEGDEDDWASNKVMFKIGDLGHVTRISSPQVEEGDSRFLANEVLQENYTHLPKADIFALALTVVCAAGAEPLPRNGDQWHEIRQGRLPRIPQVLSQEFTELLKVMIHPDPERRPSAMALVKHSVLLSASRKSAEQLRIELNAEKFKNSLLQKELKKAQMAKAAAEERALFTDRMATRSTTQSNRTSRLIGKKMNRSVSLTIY
Phosphatidylinositol 4-phosphate 5-kinase type-1 alpha (Homo sapiens), sequence (Q99755 whole entry): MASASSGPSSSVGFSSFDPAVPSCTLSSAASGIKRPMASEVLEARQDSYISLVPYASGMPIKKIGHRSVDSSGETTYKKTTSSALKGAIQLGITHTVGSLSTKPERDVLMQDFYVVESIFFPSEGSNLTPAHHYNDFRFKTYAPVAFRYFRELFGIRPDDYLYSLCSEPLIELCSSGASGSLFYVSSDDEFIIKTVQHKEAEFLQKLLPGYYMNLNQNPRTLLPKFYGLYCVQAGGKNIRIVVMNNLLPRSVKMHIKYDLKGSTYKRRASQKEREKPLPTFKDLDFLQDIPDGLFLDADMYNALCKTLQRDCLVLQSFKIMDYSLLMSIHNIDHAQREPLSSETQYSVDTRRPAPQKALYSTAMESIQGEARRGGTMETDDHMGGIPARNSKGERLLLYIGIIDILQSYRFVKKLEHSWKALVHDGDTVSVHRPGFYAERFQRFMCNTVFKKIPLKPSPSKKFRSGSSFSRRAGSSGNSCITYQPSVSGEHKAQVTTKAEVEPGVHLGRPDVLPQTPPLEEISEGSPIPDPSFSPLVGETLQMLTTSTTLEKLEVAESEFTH

SMILES | inhibition [1] | inhibition [2] | inhibition [3] | inhibition [4] | inhibition [5] | inhibition [6] | inhibition [7] | inhibition [8] | inhibition [9]
CNc1cc(Oc2cc(C(=O)Nc3cc(N4CCN(C)CC4)cc(C(F)(F)F)c3)ccc2C)ncn1 | -8% | 22.5% | 2.5% | – | – | – | – | – | –
CCN1CCN(Cc2ccc(NC(=O)c3ccc(C)c(Oc4ccnc5[nH]ccc45)c3)cc2C(F)(F)F)CC1 | – | – | – | 1.5% | 4% | inactive | 8.4% | 31.6% | 8%
